Laboratory results taken from ChEMBL document CHEMBL4334506, “Xylodon flaviporus-Derived Drimane Sesquiterpenoids That Inhibit Osteoclast Differentiation” (J Nat Prod, 2019).

Experiments:
BMDM [1] = test: Inhibition of M-CSF/RANKL-induced osteoclast differentiation in C57BL/6 mouse bone marrow macrophage after 4 days by TRAP-staining based microscopic analysis; type: functional, cell-based
[2] = Inhibition of M-CSF/RANKL-induced osteoclast differentiation in C57BL/6 mouse bone marrow macrophage assessed as reduction in multinucleated TRAP+ cells after 4 days by TRAP-staining based microscopic analysis; type: functional, cell-based; conditions: C57BL/6, BMDM, 96 h
BMDM [3] = test: Cytotoxicity against M-CSF stimulated C57BL/6 mouse bone marrow macrophage cells at 1 to 10 uM after 4 days by XTT assay; type: cell-based; conditions: 96 h
BMDM [4] = test: Cytotoxicity against M-CSF stimulated C57BL/6 mouse bone marrow macrophage cells at 3 to 30 uM after 4 days by XTT assay; type: cell-based; conditions: 96 h

| SMILES | inhibition (BMDM [1]) | IC50 [2] | Activity (BMDM [3]) | Activity (BMDM [4]) |
| --- | --- | --- | --- | --- |
| CC1(C)CCC[C@]2(C)[C@H](O)C(C=O)=C[C@H](OC(=O)/C=C/c3ccccc3)[C@@H]12 | Dose-dependent effect | 8.5 µM | Non-Toxic |  |
| CO[C@@H]1OC(=O)C2=C[C@H](OC(=O)/C=C/c3ccccc3)[C@H]3C(C)(C)CCC[C@]3(C)[C@H]21 | Dose-dependent effect | 10.1 µM | Non-Toxic |  |
| CC1(C)CCC[C@]2(C)[C@@H]3C(=C[C@H](OC(=O)/C=C/c4ccc(O)cc4)[C@@H]12)CO[C@H]3O | Dose-dependent effect | 2.1 µM | Non-Toxic |  |
| CC1(C)CCC[C@]2(C)C3=C(COC3=O)C[C@H](OC(=O)/C=C/c3ccc(O)cc3)[C@@H]12 | Dose-dependent effect | 0.9 µM | Non-Toxic |  |
| CC1(C)CCC[C@]2(C)C3=C(COC3=O)C[C@H](OC(=O)/C=C/c3ccccc3)[C@@H]12 | Dose-dependent effect | 1.6 µM | Non-Toxic |  |
| CC1(C)CCC[C@]2(C)[C@@H]3C(=C[C@H](OC(=O)/C=C/c4ccccc4)[C@@H]12)CO[C@H]3O | Dose-dependent effect | 10.7 µM |  | Non-Toxic |
